# Test results published in paper PMC8146397 (Nanomaterials, 2021).
# Values joined by “and” are separate entries in the source; they are usually repeats but may differ in a detail not shown here. Identical values can stand only once.
# Legend:
# [1] = In vitro dissolution / CIP release at pH 5.0 for 72 h; type: physicochemical
# Salmonella typhi strains = assay: Antibacterial activity, CFU count / sterilization rate; type: cell-based; details: Salmonella typhi 3 × 10^4 cells/ml, 3 h at 37 °C, CFU after 18 h
# Method: After incubation, solidified LB agar plat was impregnated with 100 μL of the bacterial suspension.
# [2] = In vivo pharmacokinetics after oral delivery (HPLC of plasma); details: mice
# Method: Healthy mice weighing 30 g were kept in the primate facility with free access to food and water a day before the commencement of the experiment. The mice were divided into two groups (n = 5). […] Blood plasma was stored at −20 °C until further use.
# [3] = release kinetic model Ct = C0 + k0t
# [4] = release kinetic model Mi/M∞ = Kth + b
# [5] = release kinetic model logQ0 + Kit/2.3
smiles,measurement,setting,value
"O=C(O)c1cn(C2CC2)c2cc(N3CCNCC3)c(F)cc2c1=O [CIP, Ciprofloxacin]",Zero Order K^0,[1]; [3],32.90
same,Zero Order R^2,[1]; [3],0.5787 ± 2.57
same,Korsmeyer-Peppas N (release exponent n),[1]; [4],0.502
same,Korsmeyer-Peppas R2,[1]; [4],0.9370 ± 4.85
same,Higuchi KH,[1]; release kinetic model Q = KH√t,53.70
same,Higuchi R2,[1]; release kinetic model Q = KH√t,0.9360 ± 3.57
same,First Order K1,[1]; [5],0.877
same,First Order R^2,[1]; [5],0.9534 ± 1.57
same,Sterilizing rate,Salmonella typhi strains,9 ± 3.25%
same,AUMC 0-inf,[2],900.65 μg/mL × h^2 and 900.65 ± 1.57 μg/mL × h^2
